Data as given in patent US6610744B2, “Methods of treatment with compounds having RARα receptor specific or selective activity” (Allergan, Inc., priority 1995, dated 2003).
≈ marks a conversion by molar mass, not a printed value.

Assays:
[1] = test system: retinal pigment epithelium (RPE) cells; experiment: Primary RPE culture proliferation; type: cell-based, human; settings: FIG. 5; 10^−10 to 10^−6 M, six days treatment
Experimental: Primary cultures of human retinal pigment epithelium (RPE) were established from eyes as previously described, (Campochiaro et al., Invest. Opthal & Vis. Sci. 32:65-72 (1991)). 5×10^4 Cells were plated in 16-mm wells of 24-well multiwell plates in Dulbecco's modified Eagle's medium (DMEM Gibco) containing 10% fetal bovine serum (FBS). Cells were treated with ethanol alone (control), ATRA (10^−10 to 10^−6 M) in ethanol, and Compound 42 (10^−10 to 10^−6 M) in ethanol. Cells were fed with fresh media containing the appropriate concentrations of these compounds every two days for a total of six days treatment. Cells were removed from the plates via treatment with trypsin and the number of cells were counted with an electronic cell counter.

[2] = test system: AML-193 cells (acute monocytic leukemia); experiment: AML 193 cell culture assay (3H-thymidine incorporation); type: cell-based, human; settings: FIG. 3; low concentrations
Experimental: (§1) All trans-retinoic acid (t-RA) (Sigma Chemicals Co., St. Louis, Mo.) was stored at −70° C. Prior to each experiment the compound was dissolved in 100% ethanol at 1 mM and diluted in culture medium immediately before use. All experiments were performed in subdued light. Controls were assayed using the same concentration of ethanol as present in the experimental plates and this concentration of diluent had no effect in either assay.
AML-193 was established from the blast cells classified as M5 Acute Monocyte Leukemia. The growth factor, […] (GM-CSF) was required to establish this cell line and growth factors are necessary for its continuous proliferation in chemically defined medium. AML-193 cells were grown and maintained in Iscove's modified Dulbecco's medium supplemented with 10% fetal bovine serum, glutamine and antibiotics with 5 μg/ml insulin (Sigma Chemical Co.) and 2 ng/ml rh GM-CSF (R and D Systems). The cells were diluted to a concentration of 3×10^5/ml twice a week.
(§2) AML-193 cells were plated in a 96 well round bottom microtiter plate (Costar) at a density of 1,000 cells/well. To appropriate wells, retinoid test compounds were added at the final concentrations indicated for a final volume of 150 μl/well. The plates were incubated for 96 hours at 37° C. in a humidified atmosphere of 5% CO2 in air. Subsequently, 1 μCi of [5′-^3H]-thymidine (Amersham, U.K., 43 Ci/mmol specific activity) in 25 μl culture medium was added to each well and the cells were incubated for an additional 6 hours.
(§3) The cell lines were then processed as follows: the cellular DNA was precipitated with 10% trichloroacetic acid onto glass fiber filter mats using a SKATRON multi-well cell harvester (Skatron Instruments, Sterling Va.). Radioactivity incorporated into DNA, as a direct measurement of cell growth, was measured by liquid scintillation counting. The numbers represent the mean disintegrations per minute of incorporated thymidine from triplicate wells±SEM.

[3] = test system: RPMI 8226 cells (malignant myeloma); experiment: RPMI 8226 cell culture assay (3H-thymidine incorporation); type: cell-based, human; settings: FIG. 1; low concentration range 10^−12 to approximately 10^−9
Experimental: as §1
The cell lines, RPMI 8226, ME-180 and AML-193 were obtained from the American Type Culture Collection (ATCC, Rockville, Md.). RPMI 8226 is a human hematopoietic cell line obtained from the peripheral blood of a patient with multiple myeloma. The cells resemble the lymphoblastoid cells of other human lymphocyte cell lines and secrete […] light chains of immunoglobulin. RPMI-8226 cells are grown in RPMI medium (Gibco) supplemented with 10% fetal bovine serum, glutamine and antibiotics. The cells were maintained as suspension cultures grown at 37° C. in a humidified atmosphere of 5% CO2 in air. The cells were diluted to a concentration of 1×10^5/ml twice a week.
as §2, with “The method used for determination of the incorporation of radiolabeled thymidine was adapted from the procedure described by Shrivastav et al. RPMI-8226” for “AML-193”, “U.K.” for “U.K.,”, “hours. The cultures were further processed as described below.” for “hours.”
as §3

[4] = test system: limb bud mesenchymal cells; experiment: Chondrogenesis suppression bioassay (teratogenic potency); type: cell-based; settings: read-out: IC50 (50% inhibition of chondrogenesis); mouse limb bud spot cultures, 96 hours after plating; greater IC50 signifies lesser teratogenecity
Experimental: High-density “spot” cultures of limb bud mesenchymal cells are used to compare the ability of various concentrations of test drugs to suppress chondrogenic differentiation as a bioassay. Forelimb buds of mouse embryos on day 12 of gestation (54±2 somites) are dissociated in a trypsin-EDTA solution, and the resultant single-cell suspension is plated as 20-μl spots (200,000 cells/spot) on plastic culture dishes. Retinoid concentrations ranging from 0.3 ng/ml to 3 μg/ml (1 nM−10 μM) are added to the culture medium (Eagle's MEM±10% fetal bovine serum, GIBCO) 24 hours after initial plating. Control cultures receive only the vehicle (ethanol, concentration≦1% by vol); Retinoic acid is used as a positive control in another set of cultures.
The cultures are terminated 96 hours after plating, at which time the medium is removed and the cells are fixed for 1 hour in 10% formalin containing 0.5% cetylpyridinium chloride. The cultures are rinsed in acetic acid and stained for 1 hour in 0.5% Alcian blue solution at pH 1.0, differentiated in 3% acetic acid, and then dehydrated in ethanol and scored for chondrogenesis under the microscope. An absence or reduction in the number of cartilage nodules in stained cultures as compared with control cultures is taken as a measure of suppression of chondrogenesis. The number of cartilage nodules stained in the whole spot, mean number of nodules, and standard deviations are calculated for four replicate cultures per treatment. […] The IC50 values are expressed in nanogram per mililiter (ng/ml) units. An IC50 value of greater concentration in this assay signifies lesser teratogenecity.

[5] = test system: ovarian tumor cells; experiment: EDR assay on cells from solid tumors of patients; type: cell-based, human; settings: FIG. 4; tumors from 4 patients, four days with drug
Experimental: Freshly resected solid tumor biopsies were received within 24 hours of surgery. Species were processed for assay after retaining a portion of the tumor for paraffin embedding and histopathologic confirmation of specimen viability and tissue diagnosis. The remaining specimen was dissociated into small fragments using sterile scissors. The small tissue fragments were then exposed to collagenase and DNAase for 2 hours with mixing a CO2 incubator in order to release the tumor cells from the connective tissue stroma. The resulting cell suspension was washed, and cell counts determined from a cytospin preparation. Tumor cells were resuspended at 40,000 cells per ml in 0.3% agarose in RMPI 1640 supplemented with 15% FCS, glutamine and antibiotics, and 0.5 ml were plated into each well of a 24 well plate over 0.5 ml layer of 0.5% agarose. These culture conditions prevent cell adherence, thereby allowing only transformed cells to proliferate. Additionally, the cells grow into three dimensional spheroids, recapitulating their in vivo morphology.
Retinoid drugs were added 24 hours after plating to insure specimen reequilibration to a growth environment after the rigors of transport and processing. […] After the agarose-cell suspension was liquefied at 90° C., cells were harvested onto glass fiber filters, which were counted in 5 ml scintillation fluid using a Beckman 6500 liquid scintillation counter. […]

CC1=C(/C=C/C(C)=C/C=C/C(C)=C/C(=O)O)C(C)(C)CCC1 [ATRA, all trans retinoic acid, reference compound]
RPE cell proliferation [1]: dose dependent decrease in RPE cell proliferation | AML-193 cell proliferation at low concentrations [2]: promotes cell proliferation | growth of RPMI 8226 cells at low concentration [3]: facilitates growth | IC50 [4]: 0.055 µg/mL (≈ 0.183 µM)

CC1(C)CCC(C)(C)c2cc(C(=O)Nc3ccc(C(=O)O)c(F)c3)ccc21 [Compound 2]
ovarian tumor cell proliferation [5]: inhibits this tumor cell proliferation in a concentration dependent manner
